# Reference: US11007196B1, “Method for preparing composition of matter comprising fluorouracil and zinc-mercury-selenium quantum dot” (priority 2020, dated 2021)
# System: human gastric cancer MGC-803 cells
# Procedure: Pharmaceutical reagents were divided into four groups including ZnHgSe quantum dot group, DMF group, DMF-QD group and blank control group. Human gastric cancer MGC-803 cells in exponential phase were digested with trypsin, followed by addition of medium containing 10% fetal bovine serum to make a single cell suspension. The cells were seeded in a 96-well cell culture plate (100 μL of cell suspension was added to each well, containing 9×10^3 cells) and cultured in an incubator of 37° C. and 5% CO2 for 24 h until the cells adhered to the wall of the 96-well plate. Three groups of drug solutions with concentration gradients were added (ZnHgSe quantum dot gradient: 2400 μg·mL^−1, 1200 μg·mL^−1, 600 μg mL^−1, 300 μg·mL^−1, 150 μg·mL^−1, and 75 μg·mL^−1; DMF gradient: 800 μg mL^−1, 400 μg·mL^−1, 200 μg·mL^−1, 100 μg·mL^−1, 50 μg·mL^−1, and 25 μg·mL^−1; corresponding DMF-QD gradient was determined according to DMF concentration by equivalent conversion). Each group was repeated with 6 wells, with an additional zero-adjustment well and a control well. […] The absorbance value OD of each well was measured by an enzyme-linked immunosorbent detector at a wavelength of 490 nm, and the cell growth inhibition rate (IC50) was calculated. IC50 value was calculated according to the modified Karber's method: […]
substance,measurement,value
dextran-magnetic layered double hydroxide-fluorouracil [DMF],cytotoxicity per unit mass relative to quantum dots,about 2.6 times
